By melting point is commonly meant the temperature, or range, at which the solid turns liquid. The IC50 is the concentration that inhibits the measured activity by half. Low readings indicate greater potency, high ones weaker potency.

Some results are limits rather than exact numbers.

Results on 12 compounds are retold here after publication PMC8838787, “The Antiproliferative and Apoptotic Effects of a Novel Quinazoline Carrying Substituted-Sulfonamides: In Vitro and Molecular Docking Study” (Molecules, 2022).

Data set [1] concerns LoVo (colon) cancer cells. Kind of data set: MTT cell viability assay, LoVo. Conditions: Homo sapiens, 48 h, average ± SD (n = 3). It counts as cell-based. As to the method: (§1) Compounds 4a–n were subjected to the cytotoxicity screening of the cell lines MCF-7 (breast), LoVo (colon), HepG2 (liver) and A549 (lung) carcinoma cells as well as HUVEC normal cell lines. The MTT assay was employed to assess cytotoxicity after 48 h of treatment with different concentrations of each compound and doxorubicin was used as a reference drug. The results were presented in Table 1 as growth inhibitory concentration (IC50 values).
(§2) Cell viability was determined using 3-(4,5-dimethylthiazol-2-yl)-2,5-diphenyl tetrazolium bromide (MTT) assay as stated previously. In brief, A549 (lung), HepG2 (liver), LoVo (colon), MCF-7 (breast) cancer cells as well as normal cells (HUVEC) were seeded in 96-well plates (10^5 per well) and compounds were added in a different final concentration. All cells were treated for 48 h, and then 10μL of MTT reagent (5 mg/mL) was added to each well and further incubated for 4 h. Thereafter, 0.1 mL of acidified isopropanol was added to solubilize formazan product and the developed color was measured at 570 nm in Microplate ELISA Reader (BioTek, Elx-800, Winooski, VT, USA). The IC50 values (concentration required for 50% inhibition of cell viability) were calculated using dose response curve. Cell viability was calculated as = (Ab Treated/Ab Control) × 100.
(§3) The A549, HepG2, LoVo and MCF-7 cancer cell lines were obtained from the German Collection of Microorganisms and Cell Cultures (DSMZ) (Braunschweig, Germany). For Human umbilical vein endothelial cells (HUVEC cells), it was purchased from American Type Culture Collection (16549; Cat no. PCS-100-010; ATTCC, Manassas, VA, USA).
(In general: Tetrazolium dyes change colour on reduction, which living cells bring about.)

A further data set concerns HUVEC normal cells. Kind of data set: MTT cell viability assay, normal HUVEC. Format: cell-based. Conditions: Homo sapiens, 48 h, average ± SD (n = 3). As to the method: as §1, §2, §3
Data set [2] relates to HepG2 (liver) cancer cells. Nature of the data set: MTT cell viability assay, HepG2. Format: cell-based. Conditions: Homo sapiens, 48 h, average ± SD (n = 3). As to the method: as §1, §2, §3
For a further data set, the system named is A549 (lung) cancer cells. Kind of data set: MTT cell viability assay, A549. It counts as cell-based. To be noted: Homo sapiens, A549, 48 h, average ± SD (n = 3). As to the method:
as §1, §2, §3

Data set [3] deals with MCF-7 (breast) cancer cells. Kind of data set: MTT cell viability assay, MCF-7. Format: cell-based, human. Conditions: for IC50: Homo sapiens, MCF7, 48 h, average ± SD (n = 3); for cytotoxic activity (in words, SAR discussion): 48 h. As to the method:
as §1, §2, §3

On to `COc1cccc2c(=O)n(-c3ccc(S(=O)(=O)NCC(=O)Nc4ccccc4C)cc3)c(SCC(=O)Nc3ccccc3C)nc12` [Compound 4b], for which the melting point lay in the range of 102 to 104 °C. For the same compound, 35.8 ± 1 µM corresponded to half-maximal inhibition in data set [1] (IC50). In the data set on HUVEC normal cells, this compound yielded an IC50 of 32.7 ± 1.2 µM. This compound displayed an IC50 in data set [2] of 33.7 ± 0.8 µM. Moreover, in the data set with A549 (lung) cancer cells, the 50% inhibitory concentration (IC50) stood at 11.4 ± 1.6 µM. Moreover, the half-maximal inhibitory concentration (IC50) in data set [3] is 36.2 ± 2 µM.

`COc1cc(NC(=O)CNS(=O)(=O)c2ccc(-n3c(SCC(=O)Nc4cc(OC)cc(OC)c4)nc4c(OC)cccc4c3=O)cc2)cc(OC)c1` [Compound 4j, N-(3,5-Dimethoxyphenyl)-2-((3-(4-N-(2((3,5-dimethoxyphenyl)amino)-2-oxoethyl)-sulfa-moyl)phenyl-8-methoxy-4-oxo-3,4-dihydroquinazolin-2-yl)thio)acetamide] had a melting point of 239 to 241 °C. Moreover, the concentration for half-maximal inhibition (IC50) in data set [1] is greater than 40 µM. Also, the IC50 in the data set on HUVEC normal cells is greater than 40 µM. For the same compound, the IC50 in data set [2] was greater than 40 µM. The 50% inhibitory concentration (IC50) in the data set on A549 (lung) cancer cells was greater than 40 µM. The IC50 in data set [3] was greater than 40 µM.

In turn, `CCOc1ccc(NC(=O)CNS(=O)(=O)c2ccc(-n3c(SCC(=O)Nc4ccc(OCC)cc4)nc4c(OC)cccc4c3=O)cc2)cc1` [Compound 4i, N-(4-Ethoxyphenyl)-2-((3-(4-N-(2((4-ethoxyphenyl)amino)-2-oxoethyl)sulfamoyl)-phenyl-8-methoxy-4-oxo-3,4-dihydroquinazolin-2-yl)thio)acetamide] came in with a melting point greater than 350 °C. In data set [1], this compound returned an IC50 of 22 ± 1.01 µM. For the same compound, the midpoint of inhibition in the data set on HUVEC normal cells, the IC50, lay at 18.2 ± 2.2 µM. This compound came in with an IC50 in data set [2] of 20.6 ± 1.6 µM. Besides, in the data set on A549 (lung) cancer cells, the IC50 came out at 13.8 ± 0.5 µM. In data set [3], inhibition was half-maximal at 26.4 ± 0.79 µM (IC50).

With `COc1cccc2c1C(=O)c1c(O)c3c(c(O)c1C2=O)C[C@@](O)(C(=O)CO)C[C@@H]3O[C@H]1C[C@H](N)[C@H](O)[C@H](C)O1` [Doxorubicin, reference compound], the IC50 in data set [1] worked out at 1.5 ± 0.05 µM; in the data set on HUVEC normal cells it was 3.7 ± 0.2 µM; with A549 (lung) cancer cells it was 1.1 ± 0.01 µM; in data set [3], 1.4 ± 0.3 µM.

Compound `COc1cc(NC(=O)CNS(=O)(=O)c2ccc(-n3c(SCC(=O)Nc4cc(OC)c(OC)c(OC)c4)nc4c(OC)cccc4c3=O)cc2)cc(OC)c1OC` [Compound 4k] displayed a melting point of 260 to 262 °C. In data set [1], the IC50 is greater than 40 µM. Further, in the data set on HUVEC normal cells, the IC50 was greater than 40 µM. The concentration for half-maximal inhibition (IC50) in data set [2] was greater than 40 µM. Moreover, in the data set with A549 (lung) cancer cells, the IC50 is greater than 40 µM. The same compound displayed an IC50 in data set [3] greater than 40 µM.

Regarding `COc1ccc(NC(=O)CNS(=O)(=O)c2ccc(-n3c(SCC(=O)Nc4ccc(OC)cc4)nc4c(OC)cccc4c3=O)cc2)cc1` [Compound 4h, 2-(4-(8-Methoxy-2-((2-((4-methoxyphenyl)amino)-2-oxoethyl)thio)-4-oxoquinazolin-3(4H)-yl)phenylsulfonamido)-N-(4-methoxy-phenyl)acetamide], the melting point fell in the range of 117 to 119 °C. The same compound gave a half-maximal inhibitory concentration (IC50) in data set [1] of 31.7 ± 1 µM. Also, the IC50 in data set [2] was 25.4 ± 0.95 µM. In addition, it took 13.3 ± 0.85 µM to reach half-maximal inhibition with A549 (lung) cancer cells (IC50). Further, the half-maximal inhibitory concentration (IC50) in data set [3] worked out at 31.6 ± 1.3 µM.

For the compound `COc1cccc2c(=O)n(-c3ccc(S(=O)(=O)NCC(=O)Nc4c(C)cccc4[N+](=O)[O-])cc3)c(SCC(=O)Nc3c(C)cccc3[N+](=O)[O-])nc12` [Compound 4m, 2-(4-(8-Methoxy-2-((2-((2-methyl-6-nitrophenyl)amino)-2-oxoethyl)thio)-4-oxoquinazolin-3(4H)-yl)phenylsulfonamido)-N-(2-methyl-6-nitrophenyl)acetamide], the melting point is 272 to 274 °C. In data set [1], this compound returned an IC50 greater than 40 µM. In addition, in the data set with HUVEC normal cells, the half-inhibitory concentration (IC50) was greater than 40 µM. In data set [2], this compound returned an IC50 greater than 40 µM. The same compound returned an IC50 in the data set with A549 (lung) cancer cells greater than 40 µM. In data set [3], this compound displayed a concentration for half-maximal inhibition (IC50) greater than 40 µM.

The compound `COc1cccc2c(=O)n(-c3ccc(S(=O)(=O)NCC(=O)Nc4ccc([N+](=O)[O-])cc4C)cc3)c(SCC(=O)Nc3ccc([N+](=O)[O-])cc3C)nc12` [Compound 4l, 2-(4-(8-Methoxy-2-((2-((2-methyl-4-nitrophenyl)amino)-2-oxoethyl)thio)-4-oxoquinazolin-3(4H)-yl)phenylsulfonamido)-N-(2-methyl-4-nitrophenyl)acetamide] returned a melting point of 127 to 129 °C. This compound showed an IC50 in data set [1] greater than 40 µM. In the data set with HUVEC normal cells, this compound yielded an IC50 greater than 40 µM. Moreover, in data set [2], the IC50 is greater than 40 µM. Also, in the data set on A549 (lung) cancer cells, the IC50 was greater than 40 µM. The IC50 in data set [3] was greater than 40 µM.

Compound `COc1cccc2c(=O)n(-c3ccc(S(=O)(=O)NCC(=O)Nc4cccc(C)c4)cc3)c(SCC(=O)Nc3cccc(C)c3)nc12` [Compound 4c] showed a melting point of 112 to 114 °C. In data set [1], this compound showed an IC50 greater than 40 µM. The compound also yielded an IC50 in the data set on HUVEC normal cells greater than 40 µM. The same compound registered a concentration for half-maximal inhibition (IC50) in data set [2] greater than 40 µM. The IC50 in the data set on A549 (lung) cancer cells is greater than 40 µM. Besides, in data set [3], the “cytotoxic activity (in words, SAR discussion)” value (from here on “cytotoxic activity”) is reported as “abolishes the cytotoxicity” and the IC50 was greater than 40 µM.

`COc1cccc2c(=O)n(-c3ccc(S(=O)(=O)NCC(=O)Nc4ccccc4)cc3)c(SCC(=O)Nc3ccccc3)nc12` [Compound 4a] registered a melting point of 165 to 167 °C. Further, the IC50 in data set [1] came to 37.5 ± 1.8 µM. Moreover, the IC50 with HUVEC normal cells is 20.9 ± 1 µM. In data set [2], this compound yielded a half-inhibitory concentration (IC50) of 35 ± 1.2 µM. The half-maximal inhibitory concentration (IC50) in the data set on A549 (lung) cancer cells turned out to be 19.6 ± 1.7 µM. In data set [3], the IC50 amounted to 14.2 ± 0.4 µM.

`CCc1ccc(NC(=O)CNS(=O)(=O)c2ccc(-n3c(SCC(=O)Nc4ccc(CC)cc4)nc4c(OC)cccc4c3=O)cc2)cc1` [Compound 4g, N-(4-ethylphenyl)-2-((3-(4-(N-(2-((4-ethylphenyl)amino)-2-oxoethyl)sulfamoyl)-phenyl)-8-methoxy-4-oxo-3,4-dihydroquinazolin-2yl)thio)acetamide] displayed a melting point of 219 to 221 °C. This compound also registered a half-maximal inhibitory concentration (IC50) in data set [1] greater than 40 µM. Moreover, the IC50 with HUVEC normal cells is greater than 40 µM. Also, the IC50 in data set [2] is greater than 40 µM. This compound registered a half-inhibitory concentration (IC50) in the data set on A549 (lung) cancer cells greater than 40 µM. In data set [3], the “cytotoxic activity” value is listed as “no antiproliferative” and the IC50 was greater than 40 µM.

Regarding `CCc1ccccc1NC(=O)CNS(=O)(=O)c1ccc(-n2c(SCC(=O)Nc3ccccc3CC)nc3c(OC)cccc3c2=O)cc1` [Compound 4e, N-(2-ethylphenyl)-2-((3-(4-(N-(2-((2-ethylphenyl)amino)-2-oxoethyl)sulfamoyl)-phe-nyl)-8-methoxy-4-oxo-3,4-dihydroquinazolin-2yl)thio)acetamide], the melting point lay in the range of 246 to 248 °C. The same compound returned a half-maximal inhibitory concentration (IC50) in data set [1] greater than 40 µM. In the data set on HUVEC normal cells, the IC50 was greater than 40 µM. For the same compound, the IC50 in data set [2] was greater than 40 µM. In addition, the IC50 with A549 (lung) cancer cells is greater than 40 µM. Also, in data set [3], the “cytotoxic activity” value is given as “no antiproliferative” and the 50% inhibitory concentration (IC50) was greater than 40 µM.
